According to paper PMC3201767 (Chemical communications (Cambridge, England), 2011):

T1: His6-Pd2,6ST(16–497) (Photobacterium damselae, UniProt O66375)
T1 sequence (O66375 16-497): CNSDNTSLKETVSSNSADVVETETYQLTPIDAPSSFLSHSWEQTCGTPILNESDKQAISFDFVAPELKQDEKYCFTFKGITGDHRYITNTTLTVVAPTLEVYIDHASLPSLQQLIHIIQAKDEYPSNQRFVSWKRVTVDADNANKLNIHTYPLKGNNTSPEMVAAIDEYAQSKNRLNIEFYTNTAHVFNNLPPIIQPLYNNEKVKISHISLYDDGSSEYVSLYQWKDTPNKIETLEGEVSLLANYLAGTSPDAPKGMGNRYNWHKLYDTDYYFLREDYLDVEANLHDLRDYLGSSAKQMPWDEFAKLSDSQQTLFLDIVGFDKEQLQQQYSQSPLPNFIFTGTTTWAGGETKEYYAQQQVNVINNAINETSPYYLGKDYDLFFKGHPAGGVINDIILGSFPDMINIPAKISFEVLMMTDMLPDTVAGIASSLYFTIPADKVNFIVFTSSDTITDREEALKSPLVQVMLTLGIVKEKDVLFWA


Key:
Experiment in all cases: apparent sialyltransferase kinetics
His6-Pd2,6ST(16–497) = target: T1, His6-Pd2,6ST(16–497); assay type: biochemical; details: read-out: His6-Pd2,6ST(16-497); acceptor; donor CMP-Neu5Ac; apparent value
Psp2,6ST(15–501)-His6 = Psp2,6ST(15–501)-His6 (Photobacterium sp. JT-ISH-224, UniProt A8QYL1); assay type: biochemical; details: read-out: Psp2,6ST(15-501)-His6; acceptor; donor CMP-Neu5Ac; apparent value
[1] = substrate: Cc1cc(=O)oc2cc(O[C@@H]3O[C@H](CO)[C@@H](O[C@@H]4O[C@H](CO)[C@H](O)[C@H](O)[C@H]4O)[C@H](O)[C@H]3O)ccc12; assay type: biochemical, Photobacterium sp. JT-ISH-224; details: acceptor; donor CMP-Neu5Ac; apparent value; pH 2.6

Molecule | Km (His6-Pd2,6ST(16–497)) | Km (Psp2,6ST(15–501)-His6) | Km [1] | kcat [1] | kcat/Km [1]
CC(=O)N[C@H]1[C@@H](OC[C@H](N)C(=O)O)O[C@H](CO)[C@H](O)[C@@H]1O [compound 12, GalNAcαSer] | 1.6 ± 0.2 mM | 1.4 ± 0.1 mM |  |  | 
CC(=O)N[C@H]1[C@@H](O[C@H](C)[C@H](N)C(=O)O)O[C@H](CO)[C@H](O)[C@@H]1O [compound 13, GalNAcαThr] | 10 ± 1 mM | 5.9 ± 1.6 mM |  |  | 
GalNAcα2AA [compound 11] | 51 ± 5 mM | 9.5 ± 2.7 mM |  |  | 
Psp2,6ST(15–501)-His6 (Photobacterium sp. JT-ISH-224) (protein) CNNSEENTQSIIKNDINKTIIDEEYVNLEPINQSNISFTKHSWVQTCGTQQLLTEQNKESISLSVVAPRLDDDEKYCFDFNGVSNKGEKYITKVTLNVVAPSLEVYVDHASLPTLQQLMDIIKSEEENPTAQRYIAWGRIVPTDEQMKELNITSFALINNHTPADLVQEIVKQAQTKHRLNVKLSSNTAHSFDNLVPILKELNSFNNVTVTNIDLYDDGSAEYVNLYNWRDTLNKTDNLKIGKDYLEDVINGINEDTSNTGTSSVYNWQKLYPANYHFLRKDYLTLEPSLHELRDYIGDSLKQMQWDGFKKFNSKQQELFLSIVNFDKQKLQNEYNSSNLPNFVFTGTTVWAGNHEREYYAKQQINVINNAINESSPHYLGNSYDLFFKGHPGGGIINTLIMQNYPSMVDIPSKISFEVLMMTDMLPDAVAGIASSLYFTIPAEKIKFIVFTSTETITDRETALRSPLVQVMIKLGIVKEENVLFWA |  |  | 0.36 ± 0.07 mM | 1.67 ± 0.167 s⁻¹ | 4830 M⁻¹ s⁻¹
